# Source: ChEMBL document CHEMBL4052697, “Chimeric analogs of human β-defensin 1 and θ-defensin disrupt pre-established bacterial biofilms” (2017)
# Active and inactive are the calls of the source. The calls are words filed in the database; no cut-off is given here. Non-standard residues stand in square brackets, D forms with d. Residues, ends and D or L forms follow the SMILES beside them. NMeA = CN[C@@H](C)C(=O)O
# Key:
# Assay type in all cases: functional
# [1] = tested on: Escherichia coli; test: Antibiofilm activity against pre-established 36 hrs old bacterial biofilms of Escherichia coli MG1655 incubated for 4 hrs by XTT assay
# [2] = tested on: Staphylococcus aureus; test: Bactericidal activity against Staphylococcus aureus NCTC 8530 planktonic forms
# [3] = tested on: Escherichia coli; test: Bactericidal activity against Escherichia coli MG1655 planktonic forms
# [4] = tested on: Staphylococcus aureus; test: Antibiofilm activity against pre-established 36 hrs old bacterial biofilms of Staphylococcus aureus NCTC 8530 incubated for 4 hrs by XTT assay
Structure (SMILES),MBEC [1],MBC [2] [µM],MBC [3] [µM],MBEC [4]
CC[C@H](C)[C@H](NC(=O)[C@H](CCC(=O)O)NC(=O)[C@@H](NC(=O)CNC(=O)[C@H](CO)NC(=O)[C@H](CC(C)C)NC(=O)[C@H](CO)NC(=O)[C@H](CCC(=O)O)NC(=O)[C@H](CCCNC(=N)N)NC(=O)[C@@H](NC(=O)[C@H](C)NC(=O)[C@H](CCCNC(=N)N)NC(=O)CNC(=O)[C@@H](NC(=O)[C@H](CCCNC(=N)N)NC(=O)[C@H](Cc1ccc(O)cc1)NC(=O)[C@@H](NC(=O)[C@H](C)N)[C@@H](C)O)[C@@H](C)O)[C@@H](C)O)C(C)C)C(=O)N[C@@H](CO)C(=O)NCC(=O)N[C@@H](CCCNC(=N)N)C(=O)N[C@@H](CC(C)C)C(=O)N[C@@H](Cc1ccc(O)cc1)C(=O)N[C@@H](CCCNC(=N)N)C(=O)N[C@@H](CC(C)C)C(=O)N[C@@H](CCCNC(=N)N)C(=O)O,inactive,> 100,50,inactive
CCCCCCCCCCCCCC(=O)N[C@@H](C)C(=O)N[C@H](C(=O)N[C@@H](Cc1ccc(O)cc1)C(=O)N[C@@H](CCCNC(=N)N)C(=O)N[C@H](C(=O)NCC(=O)N[C@@H](CCCNC(=N)N)C(=O)N[C@@H](C)C(=O)N[C@H](C(=O)N[C@@H](CCCNC(=N)N)C(=O)N[C@@H](CCC(=O)O)C(=O)N[C@@H](CO)C(=O)N[C@@H](CC(C)C)C(=O)N[C@@H](CO)C(=O)NCC(=O)N[C@H](C(=O)N[C@@H](CCC(=O)O)C(=O)N[C@H](C(=O)N[C@@H](CO)C(=O)NCC(=O)N[C@@H](CCCNC(=N)N)C(=O)N[C@@H](CC(C)C)C(=O)N[C@@H](Cc1ccc(O)cc1)C(=O)N[C@@H](CCCNC(=N)N)C(=O)N[C@@H](CC(C)C)C(=O)N[C@@H](CCCNC(=N)N)C(=O)O)[C@@H](C)CC)C(C)C)[C@@H](C)O)[C@@H](C)O)[C@@H](C)O,inactive,7.5,5,inactive
CC[C@H](C)[C@H](NC(=O)[C@H](CCCNC(=N)N)NC(=O)[C@H](CC(=O)O)NC(=O)[C@H](CC(C)C)NC(=O)[C@@H](N)CCC(=O)O)C(=O)NCC(=O)N[C@@H](Cc1ccc(O)cc1)C(=O)NCC(=O)N[C@H](C(=O)N[C@@H](C)C(=O)N[C@@H](CCCNC(=N)N)C(=O)N[C@@H](CCCNC(=N)N)C(=O)N[C@H](CCCCN)C(=O)N[C@H](CCCCN)C(=O)N[C@@H](CCCNC(=N)N)C(=O)O)[C@@H](C)O,inactive,60,20,inactive
CC[C@H](C)[C@H](NC(=O)[C@H](CCC(=O)O)NC(=O)[C@@H](NC(=O)CNC(=O)[C@H](CO)NC(=O)[C@H](CC(C)C)NC(=O)[C@H](CO)NC(=O)[C@H](CCC(=O)O)NC(=O)[C@@H](CCCNC(=N)N)NC(=O)[C@@H](NC(=O)[C@H](C)NC(=O)[C@@H](CCCNC(=N)N)NC(=O)CNC(=O)[C@@H](NC(=O)[C@@H](CCCNC(=N)N)NC(=O)[C@H](Cc1ccc(O)cc1)NC(=O)[C@@H](NC(=O)[C@H](C)N)[C@@H](C)O)[C@@H](C)O)[C@@H](C)O)C(C)C)C(=O)N[C@@H](CO)C(=O)NCC(=O)N[C@H](CCCNC(=N)N)C(=O)N[C@@H](CC(C)C)C(=O)N[C@@H](Cc1ccc(O)cc1)C(=O)N[C@H](CCCNC(=N)N)C(=O)N[C@@H](CC(C)C)C(=O)N[C@@H](CCCNC(=N)N)C(=O)O,inactive,> 100,50,inactive
CCCCCCCCCCCCCC(=O)N[C@@H](CCC(=O)O)C(=O)N[C@@H](CC(C)C)C(=O)N[C@@H](CC(=O)O)C(=O)N[C@@H](CCCNC(=N)N)C(=O)N[C@H](C(=O)NCC(=O)N[C@@H](Cc1ccc(O)cc1)C(=O)NCC(=O)N[C@H](C(=O)N[C@@H](C)C(=O)N[C@@H](CCCNC(=N)N)C(=O)N[C@@H](CCCNC(=N)N)C(=O)N[C@H](CCCCN)C(=O)N[C@H](CCCCN)C(=O)N[C@@H](CCCNC(=N)N)C(=O)O)[C@@H](C)O)[C@@H](C)CC,inactive,10,5,inactive
CCCCCCCCCCCC(=O)N[C@@H](C)C(=O)N[C@H](C(=O)N[C@@H](Cc1ccc(O)cc1)C(=O)N[C@H](CCCNC(=N)N)C(=O)N[C@H](C(=O)NCC(=O)N[C@H](CCCNC(=N)N)C(=O)N[C@@H](C)C(=O)N[C@H](C(=O)N[C@H](CCCNC(=N)N)C(=O)N[C@@H](CCC(=O)O)C(=O)N[C@@H](CO)C(=O)N[C@@H](CC(C)C)C(=O)N[C@@H](CO)C(=O)NCC(=O)N[C@H](C(=O)N[C@@H](CCC(=O)O)C(=O)N[C@H](C(=O)N[C@@H](CO)C(=O)NCC(=O)N[C@H](CCCNC(=N)N)C(=O)N[C@@H](CC(C)C)C(=O)N[C@@H](Cc1ccc(O)cc1)C(=O)N[C@H](CCCNC(=N)N)C(=O)N[C@@H](CC(C)C)C(=O)N[C@@H](CCCNC(=N)N)C(=O)O)[C@@H](C)CC)C(C)C)[C@@H](C)O)[C@@H](C)O)[C@@H](C)O,inactive,20,10,inactive
CCCCCCCCCCCC(=O)N[C@@H](C)C(=O)N[C@H](C(=O)N[C@@H](Cc1ccc(O)cc1)C(=O)N[C@@H](CCCNC(=N)N)C(=O)N[C@H](C(=O)NCC(=O)N[C@@H](CCCNC(=N)N)C(=O)N[C@@H](C)C(=O)N[C@H](C(=O)N[C@@H](CCCNC(=N)N)C(=O)N[C@@H](CCC(=O)O)C(=O)N[C@@H](CO)C(=O)N[C@@H](CC(C)C)C(=O)N[C@@H](CO)C(=O)NCC(=O)N[C@H](C(=O)N[C@@H](CCC(=O)O)C(=O)N[C@H](C(=O)N[C@@H](CO)C(=O)NCC(=O)N[C@@H](CCCNC(=N)N)C(=O)N[C@@H](CC(C)C)C(=O)N[C@@H](Cc1ccc(O)cc1)C(=O)N[C@@H](CCCNC(=N)N)C(=O)N[C@@H](CC(C)C)C(=O)N[C@@H](CCCNC(=N)N)C(=O)O)[C@@H](C)CC)C(C)C)[C@@H](C)O)[C@@H](C)O)[C@@H](C)O,inactive,2,20,inactive
CCCCCCCCCCCCCC(=O)N[C@@H](C)C(=O)N[C@@H](Cc1ccccc1)C(=O)N[C@H](C(=O)N[C@H](CCCNC(=N)N)C(=O)N[C@H](CCCNC(=N)N)C(=O)N[C@H](CCCNC(=N)N)C(=O)N[C@@H](CO)C(=O)N[C@@H](Cc1ccc(O)cc1)C(=O)N[C@@H](CO)C(=O)N[C@H](C(=O)N[C@@H](CCC(=O)O)C(=O)N[C@@H](Cc1ccc(O)cc1)C(=O)N[C@@H](CO)C(=O)N[C@@H](Cc1ccc(O)cc1)C(=O)NCC(=O)N[C@H](C(=O)N[C@H](C(=O)N[C@H](C(N)=O)C(C)C)[C@@H](C)O)[C@@H](C)O)[C@@H](C)O)[C@@H](C)O,inactive,50,20,inactive
CCCCCCCCCCCCCC(=O)N[C@@H](C)C(=O)N[C@H](C(=O)N[C@@H](Cc1ccc(O)cc1)C(=O)N[C@H](CCCNC(=N)N)C(=O)N[C@H](C(=O)NCC(=O)N[C@H](CCCNC(=N)N)C(=O)N[C@@H](C)C(=O)N[C@H](C(=O)N[C@H](CCCNC(=N)N)C(=O)N[C@@H](CCC(=O)O)C(=O)N[C@@H](CO)C(=O)N[C@@H](CC(C)C)C(=O)N[C@@H](CO)C(=O)NCC(=O)N[C@H](C(=O)N[C@@H](CCC(=O)O)C(=O)N[C@H](C(=O)N[C@@H](CO)C(=O)NCC(=O)N[C@H](CCCNC(=N)N)C(=O)N[C@@H](CC(C)C)C(=O)N[C@@H](Cc1ccc(O)cc1)C(=O)N[C@H](CCCNC(=N)N)C(=O)N[C@@H](CC(C)C)C(=O)N[C@@H](CCCNC(=N)N)C(=O)O)[C@@H](C)CC)C(C)C)[C@@H](C)O)[C@@H](C)O)[C@@H](C)O,inactive,7.5,5,inactive
CC[C@H](C)[C@H](NC(=O)CNC(=O)[C@H](CCCNC(=N)N)NC(=O)[C@@H](NC(=O)[C@@H](NC(=O)[C@@H](NC(=O)CNC(=O)[C@H](Cc1ccc(O)cc1)NC(=O)[C@H](CCCNC(=N)N)NC(=O)[C@H](Cc1ccc(O)cc1)NC(=O)[C@H](CCC(=O)O)NC(=O)[C@@H](NC(=O)[C@H](CO)NC(=O)[C@H](Cc1ccc(O)cc1)NC(=O)[C@H](CO)NC(=O)[C@H](CCCNC(=N)N)NC(=O)[C@H](CCCNC(=N)N)NC(=O)[C@H](Cc1cnc[nH]1)NC(=O)[C@@H](NC(=O)[C@H](Cc1ccccc1)NC(=O)[C@H](C)NC)[C@@H](C)O)[C@@H](C)O)[C@@H](C)O)[C@@H](C)O)C(C)C)C(=O)N[C@@H](CCCNC(=N)N)C(=O)N[C@@H](Cc1cnc[nH]1)C(=O)N[C@@H](CCCNC(=N)N)C(=O)N[C@@H](Cc1ccccc1)C(=O)N[C@@H](CC(C)C)C(=O)O (H-[NMeA]FTHRRSYSTEYRYGTTVRGIRHRFL-OH),inactive,10,10,inactive
CCCCCCCCCCCCCC(=O)N[C@@H](C)C(=O)N[C@@H](Cc1ccccc1)C(=O)N[C@H](C(=O)N[C@@H](CCCNC(=N)N)C(=O)N[C@@H](CCCNC(=N)N)C(=O)N[C@@H](CCCNC(=N)N)C(=O)N[C@@H](CO)C(=O)N[C@@H](Cc1ccc(O)cc1)C(=O)N[C@@H](CO)C(=O)N[C@H](C(=O)N[C@@H](CCC(=O)O)C(=O)N[C@@H](Cc1ccc(O)cc1)C(=O)N[C@@H](CO)C(=O)N[C@@H](Cc1ccc(O)cc1)C(=O)NCC(=O)N[C@H](C(=O)N[C@H](C(=O)N[C@H](C(N)=O)C(C)C)[C@@H](C)O)[C@@H](C)O)[C@@H](C)O)[C@@H](C)O,inactive,20,10,inactive
CCCCCCCCCCCCCC(=O)N[C@@H](CCC(=O)O)C(=O)N[C@@H](CC(C)C)C(=O)N[C@@H](CC(=O)O)C(=O)N[C@H](CCCNC(=N)N)C(=O)N[C@H](C(=O)NCC(=O)N[C@@H](Cc1ccc(O)cc1)C(=O)NCC(=O)N[C@H](C(=O)N[C@@H](C)C(=O)N[C@H](CCCNC(=N)N)C(=O)N[C@H](CCCNC(=N)N)C(=O)N[C@@H](CCCCN)C(=O)N[C@@H](CCCCN)C(=O)N[C@@H](CCCNC(=N)N)C(=O)O)[C@@H](C)O)[C@@H](C)CC,inactive,10,5,inactive
